{"source": "ChEMBL document CHEMBL5346924", "about": "“Optically activated MEK1/2 inhibitors (Opti-MEKi) as potential antimelanoma agents” (Eur J Med Chem, 2023)", "key": {"[1]": {"molecular_target": "CYP3A4 (Homo sapiens, UniProt P08684)", "sequence (P08684 whole entry)": "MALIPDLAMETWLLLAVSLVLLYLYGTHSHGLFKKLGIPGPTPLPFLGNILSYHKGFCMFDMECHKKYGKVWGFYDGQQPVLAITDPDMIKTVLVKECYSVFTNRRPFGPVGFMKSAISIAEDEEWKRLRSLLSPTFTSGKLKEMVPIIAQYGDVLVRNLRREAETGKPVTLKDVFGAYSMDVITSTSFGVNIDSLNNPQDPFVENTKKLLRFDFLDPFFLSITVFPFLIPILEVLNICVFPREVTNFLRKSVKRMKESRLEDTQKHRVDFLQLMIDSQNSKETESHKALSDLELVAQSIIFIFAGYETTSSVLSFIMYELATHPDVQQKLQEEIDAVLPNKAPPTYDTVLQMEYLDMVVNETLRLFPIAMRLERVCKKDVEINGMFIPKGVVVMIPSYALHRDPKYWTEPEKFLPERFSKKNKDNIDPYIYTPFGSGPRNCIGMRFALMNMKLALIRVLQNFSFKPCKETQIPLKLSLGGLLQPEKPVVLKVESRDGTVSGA", "assay": "Inhibition of CYP3A4 in human microsomes at 10 uM in the presence of NADPH relative to control", "assay_type": "ADME, Microsome"}, "[2]": {"molecular_target": "Ribosomal protein S6 kinase alpha-1 (Homo sapiens) (UniProt Q15418)", "sequence (Q15418 whole entry)": "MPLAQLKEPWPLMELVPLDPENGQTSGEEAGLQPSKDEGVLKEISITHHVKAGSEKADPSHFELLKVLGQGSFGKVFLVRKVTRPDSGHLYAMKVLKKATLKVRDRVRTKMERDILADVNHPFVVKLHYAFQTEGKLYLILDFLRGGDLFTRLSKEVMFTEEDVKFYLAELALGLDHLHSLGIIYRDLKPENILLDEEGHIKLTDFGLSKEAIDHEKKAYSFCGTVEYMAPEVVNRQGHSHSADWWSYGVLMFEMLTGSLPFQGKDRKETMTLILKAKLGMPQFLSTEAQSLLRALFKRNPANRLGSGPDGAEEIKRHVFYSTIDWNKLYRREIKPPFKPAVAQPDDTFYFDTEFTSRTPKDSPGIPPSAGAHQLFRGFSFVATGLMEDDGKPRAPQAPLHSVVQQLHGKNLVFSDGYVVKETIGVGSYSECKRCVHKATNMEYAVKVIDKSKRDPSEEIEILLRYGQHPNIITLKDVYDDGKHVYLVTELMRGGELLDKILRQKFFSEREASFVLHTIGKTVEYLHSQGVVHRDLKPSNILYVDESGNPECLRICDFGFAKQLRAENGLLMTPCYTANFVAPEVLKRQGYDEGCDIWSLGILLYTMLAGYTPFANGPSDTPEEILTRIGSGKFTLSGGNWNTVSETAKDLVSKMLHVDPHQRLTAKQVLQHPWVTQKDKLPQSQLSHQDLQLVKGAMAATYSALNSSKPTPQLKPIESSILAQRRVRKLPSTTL", "assay": "Inhibition of recombinant human RSK1 at 1 uM"}, "[3]": {"species": "Homo sapiens", "assay": "Inhibition of recombinant human PI3K at 1 uM"}, "[4]": {"tested_on": "A-375", "assay": "Antiproliferative activity against human A-375 cells harboring BRAF V600E mutant assessed as cell growth inhibition preincubated with compound for 1 hrs followed by UV irradiation for 3 mins and measured 72 hrs post compound treatment by CellTiter-Glo luminescent assay", "assay_type": "functional", "details": "A-375, light or radiation study"}, "[5]": {"molecular_target": "Fibroblast growth factor receptor 1 (Homo sapiens) (UniProt P11362)", "assay": "Inhibition of recombinant human FGFR1 at 1 uM"}, "[6]": {"assay": "Metabolic stability in human liver microsomes assessed as parent compound remaining measured after 1 hrs in the presence of NADPH regenerating system", "assay_type": "ADME, Microsome", "details": "read-out: Stability"}, "[7]": {"tested_on": "A-375", "assay": "Antiproliferative activity against human A-375 cells harboring BRAF V600E mutant assessed as cell growth inhibition preincubated with compound for 1 hrs followed by UV irradiation for 5 mins and measured 72 hrs post compound treatment by CellTiter-Glo luminescent assay", "assay_type": "functional", "details": "A-375, light or radiation study"}, "[8]": {"assay": "Photoactivation of the compound assessed as fold change in caging efficiency"}, "[9]": {"molecular_target": "CYP2D6 (Homo sapiens, UniProt P10635)", "sequence (P10635 whole entry)": "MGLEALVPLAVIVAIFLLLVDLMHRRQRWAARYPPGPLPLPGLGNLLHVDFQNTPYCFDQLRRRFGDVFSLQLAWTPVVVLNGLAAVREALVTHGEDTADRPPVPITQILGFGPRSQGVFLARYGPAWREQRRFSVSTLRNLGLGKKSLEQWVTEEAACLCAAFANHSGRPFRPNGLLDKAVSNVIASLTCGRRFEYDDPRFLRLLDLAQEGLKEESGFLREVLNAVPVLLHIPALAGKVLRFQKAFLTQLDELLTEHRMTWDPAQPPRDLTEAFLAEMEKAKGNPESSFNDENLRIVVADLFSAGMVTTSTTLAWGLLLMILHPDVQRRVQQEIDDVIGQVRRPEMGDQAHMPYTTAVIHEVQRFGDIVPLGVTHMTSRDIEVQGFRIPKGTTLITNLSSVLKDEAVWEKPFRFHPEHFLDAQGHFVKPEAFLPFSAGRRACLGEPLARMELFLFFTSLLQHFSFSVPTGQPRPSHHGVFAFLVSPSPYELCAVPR", "assay": "Inhibition of CYP2D6 in human microsomes at 10 uM in the presence of NADPH relative to control", "assay_type": "ADME, Microsome"}, "[10]": {"assay": "Metabolic stability in human liver microsomes assessed as parent compound remaining measured after 1 hrs in the absence of NADPH regenerating system", "assay_type": "ADME, Microsome", "details": "read-out: Stability"}, "[11]": {"tested_on": "A549", "assay": "Antiproliferative activity against human A549 cells harboring KRAS […] mutant assessed as cell growth inhibition incubated for 72 hrs in the absence of UV irradiation by CellTiter-Glo luminescent assay", "assay_type": "functional", "details": "A549, light or radiation study"}, "[12]": {"tested_on": "A-375", "assay": "Inhibition of MEK/ERK/RSK signaling in human A-375 cells assessed as inhibition of ERK phosphorylation at 5 nM in the presence of 365 nm light irradiation for 30 sec to 5 min by Western blot analysis", "assay_type": "cell-based"}, "[13]": {"tested_on": "A-375", "assay": "Antiproliferative activity against human A-375 cells harboring BRAF V600E mutant assessed as cell growth inhibition preincubated with compound for 1 hrs followed by UV irradiation for 1 min and measured 72 hrs post compound treatment by CellTiter-Glo luminescent assay", "assay_type": "functional", "details": "A-375, light or radiation study"}, "[14]": {"assay": "Stability in human blood plasma assessed as half-life", "assay_type": "ADME, cell-free"}, "[15]": {"assay": "Metabolic stability in human liver microsomes assessed as half-life in the presence of NADPH regenerating system", "assay_type": "ADME, Microsome"}, "[16]": {"assay": "Cytotoxicity against HEK293T cells assessed as cell growth inhibition incubated for 72 hrs by CellTiter-Glo luminescent assay", "assay_type": "toxicity, cell-based, HEK-293T", "details": "human"}, "[17]": {"molecular_target": "CYP2C19 (Homo sapiens, UniProt P33261)", "sequence (P33261 whole entry)": "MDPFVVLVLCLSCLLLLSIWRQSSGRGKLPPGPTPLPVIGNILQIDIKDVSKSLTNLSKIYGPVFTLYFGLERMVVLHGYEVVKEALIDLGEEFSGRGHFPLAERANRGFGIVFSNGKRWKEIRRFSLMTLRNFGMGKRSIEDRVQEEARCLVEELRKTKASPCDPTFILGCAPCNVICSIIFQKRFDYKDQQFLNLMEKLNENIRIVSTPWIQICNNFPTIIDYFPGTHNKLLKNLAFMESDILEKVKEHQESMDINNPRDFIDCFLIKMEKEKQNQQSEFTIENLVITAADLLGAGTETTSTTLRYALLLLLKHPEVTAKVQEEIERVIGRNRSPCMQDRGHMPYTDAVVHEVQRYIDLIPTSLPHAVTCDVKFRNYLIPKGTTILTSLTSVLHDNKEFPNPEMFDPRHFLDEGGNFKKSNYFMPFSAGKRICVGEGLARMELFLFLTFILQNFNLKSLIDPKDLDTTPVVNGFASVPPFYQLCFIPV", "assay": "Inhibition of CYP2C19 in human microsomes at 10 uM in the presence of NADPH relative to control", "assay_type": "ADME, Microsome"}, "[18]": {"molecular_target": "CYP2C9 (Homo sapiens, UniProt P11712)", "sequence (P11712 whole entry)": "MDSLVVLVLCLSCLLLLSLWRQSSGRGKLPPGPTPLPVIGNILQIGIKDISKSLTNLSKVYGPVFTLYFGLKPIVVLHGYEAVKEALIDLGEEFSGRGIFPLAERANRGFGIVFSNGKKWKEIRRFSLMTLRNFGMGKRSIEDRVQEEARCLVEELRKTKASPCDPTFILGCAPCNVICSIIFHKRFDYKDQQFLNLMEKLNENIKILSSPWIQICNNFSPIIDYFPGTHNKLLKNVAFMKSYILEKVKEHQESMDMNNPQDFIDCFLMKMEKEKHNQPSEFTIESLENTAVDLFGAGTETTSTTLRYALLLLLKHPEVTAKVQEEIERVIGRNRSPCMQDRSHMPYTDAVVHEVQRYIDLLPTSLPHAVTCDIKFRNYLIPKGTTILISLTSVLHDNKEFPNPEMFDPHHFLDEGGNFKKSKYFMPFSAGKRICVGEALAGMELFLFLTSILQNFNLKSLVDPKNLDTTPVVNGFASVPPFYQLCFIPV", "assay": "Inhibition of CYP2C9 in human microsomes at 10 uM in the presence of NADPH relative to control", "assay_type": "ADME, Microsome"}, "[19]": {"assay": "Photoactivation of the compound assessed as photocleavage in the presence of 365 nm UV irradiation by HPLC based LC-MS analysis"}, "[20]": {"tested_on": "HCT-116", "assay": "Antiproliferative activity against human HCT-116 cells harboring KRAS G13D mutant assessed as cell growth inhibition preincubated with compound for 1 hrs followed by UV irradiation for 5 mins and measured 72 hrs post compound treatment by CellTiter-Glo luminescent assay", "assay_type": "functional", "details": "HCT-116, light or radiation study"}, "[21]": {"tested_on": "A-375", "assay": "Antiproliferative activity against human A-375 cells harboring BRAF V600E mutant assessed as cell growth inhibition incubated for 72 hrs in the absence of UV irradiation by CellTiter-Glo luminescent assay", "assay_type": "functional", "details": "A-375, light or radiation study"}, "[22]": {"molecular_target": "RAC-alpha serine/threonine-protein kinase (Homo sapiens) (UniProt P31749)", "sequence (P31749 whole entry)": "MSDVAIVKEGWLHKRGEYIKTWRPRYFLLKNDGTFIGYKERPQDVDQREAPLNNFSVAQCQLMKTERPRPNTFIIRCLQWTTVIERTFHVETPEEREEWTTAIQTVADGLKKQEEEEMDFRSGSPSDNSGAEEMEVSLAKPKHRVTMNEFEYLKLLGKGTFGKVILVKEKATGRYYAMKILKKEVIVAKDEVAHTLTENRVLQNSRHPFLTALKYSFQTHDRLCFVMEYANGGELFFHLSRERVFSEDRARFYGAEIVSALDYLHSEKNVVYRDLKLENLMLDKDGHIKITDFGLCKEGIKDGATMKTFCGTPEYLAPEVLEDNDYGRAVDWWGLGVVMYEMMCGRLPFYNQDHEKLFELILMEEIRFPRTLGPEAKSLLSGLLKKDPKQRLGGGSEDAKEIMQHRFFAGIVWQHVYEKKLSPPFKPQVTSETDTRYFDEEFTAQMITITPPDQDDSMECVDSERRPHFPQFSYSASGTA", "assay": "Inhibition of recombinant human AKT1 at 1 uM"}, "[23]": {"molecular_target": "Dual specificity mitogen-activated protein kinase kinase 2 (Homo sapiens) (UniProt P36507)", "sequence (P36507 whole entry)": "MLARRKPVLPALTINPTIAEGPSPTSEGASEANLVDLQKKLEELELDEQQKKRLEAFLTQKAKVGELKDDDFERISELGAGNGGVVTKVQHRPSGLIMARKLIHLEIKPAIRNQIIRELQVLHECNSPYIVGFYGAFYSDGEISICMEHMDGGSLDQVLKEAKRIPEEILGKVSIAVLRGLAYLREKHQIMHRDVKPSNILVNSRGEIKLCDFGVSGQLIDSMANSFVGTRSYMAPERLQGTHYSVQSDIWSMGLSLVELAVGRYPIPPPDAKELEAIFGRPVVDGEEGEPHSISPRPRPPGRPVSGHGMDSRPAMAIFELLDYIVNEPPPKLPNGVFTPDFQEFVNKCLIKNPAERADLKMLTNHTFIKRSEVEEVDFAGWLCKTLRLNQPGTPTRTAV", "assay": "Inhibition of recombinant human MEK2 at 1 uM"}, "[24]": {"assay": "Metabolic stability in human liver microsomes assessed as intrinsic clearance in the presence of NADPH regenerating system", "assay_type": "ADME, Microsome", "details": "read-out: CLH"}, "[25]": {"tested_on": "A-375", "assay": "Inhibition of colony formation in human A-375 cells at 10 to 300 nM incubated for 10 days by crystal violet staining based analysis", "assay_type": "functional, cell-based", "details": "dose 10-300 nM, time 10.0 day"}, "[26]": {"tested_on": "A-375", "assay": "Inhibition of MEK/ERK/RSK signaling in human A-375 cells assessed as inhibition of RSK phosphorylation at 5 nM in the presence of 365 nm light irradiation for 30 sec to 5 min by Western blot analysis", "assay_type": "cell-based"}, "[27]": {"tested_on": "A-375", "assay": "Inhibition of MEK/ERK/RSK signaling in human A-375 cells at 5 nM in the absence of light irradiation by Western blot analysis", "assay_type": "cell-based"}, "[28]": {"molecular_target": "Dual specificity mitogen-activated protein kinase kinase 1 (Homo sapiens, UniProt Q02750)", "assay": "Inhibition of recombinant human MEK1 at 1 uM"}, "[29]": {"tested_on": "A-375", "assay": "Antiproliferative activity against CM-Dil labelled human A-375 cells xenografted in Zebra fish AB assessed as suppression of tumor growth by measuring red fluorescence preincubated with compound followed by 365 nm light irradiation for 5 mins and measured after 48 hrs by fluorescence based analysis", "assay_type": "functional, cell-based", "details": "dose 45-90 pM"}, "[30]": {"molecular_target": "T1, CYP1A2 (Homo sapiens, UniProt P05177)", "T1 sequence (P05177 whole entry)": "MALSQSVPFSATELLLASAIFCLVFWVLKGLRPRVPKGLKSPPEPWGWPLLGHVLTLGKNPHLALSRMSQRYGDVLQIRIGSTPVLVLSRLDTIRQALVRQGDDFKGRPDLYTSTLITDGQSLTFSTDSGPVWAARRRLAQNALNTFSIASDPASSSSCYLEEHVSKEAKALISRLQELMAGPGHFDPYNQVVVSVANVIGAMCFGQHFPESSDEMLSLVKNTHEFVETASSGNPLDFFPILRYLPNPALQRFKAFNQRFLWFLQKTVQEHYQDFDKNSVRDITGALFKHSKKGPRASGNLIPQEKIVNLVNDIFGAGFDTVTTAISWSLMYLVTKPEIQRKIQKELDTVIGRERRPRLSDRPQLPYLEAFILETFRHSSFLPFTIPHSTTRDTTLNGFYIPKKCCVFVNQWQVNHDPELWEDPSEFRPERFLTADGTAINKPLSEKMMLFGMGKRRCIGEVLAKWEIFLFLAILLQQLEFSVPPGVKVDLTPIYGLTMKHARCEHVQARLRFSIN", "assay": "Inhibition of CYP1A2 in human microsomes at 10 uM in the presence of NADPH relative to control", "assay_type": "ADME, Microsome"}, "[31]": {"assay": "Photoactivation of the compound assessed as photocleavage by measuring decay half-life in the presence of 365 nm UV irradiation by HPLC based LC-MS analysis"}, "[32]": {"molecular_target": "Epidermal growth factor receptor (Homo sapiens) (UniProt P00533)", "sequence (P00533 whole entry)": "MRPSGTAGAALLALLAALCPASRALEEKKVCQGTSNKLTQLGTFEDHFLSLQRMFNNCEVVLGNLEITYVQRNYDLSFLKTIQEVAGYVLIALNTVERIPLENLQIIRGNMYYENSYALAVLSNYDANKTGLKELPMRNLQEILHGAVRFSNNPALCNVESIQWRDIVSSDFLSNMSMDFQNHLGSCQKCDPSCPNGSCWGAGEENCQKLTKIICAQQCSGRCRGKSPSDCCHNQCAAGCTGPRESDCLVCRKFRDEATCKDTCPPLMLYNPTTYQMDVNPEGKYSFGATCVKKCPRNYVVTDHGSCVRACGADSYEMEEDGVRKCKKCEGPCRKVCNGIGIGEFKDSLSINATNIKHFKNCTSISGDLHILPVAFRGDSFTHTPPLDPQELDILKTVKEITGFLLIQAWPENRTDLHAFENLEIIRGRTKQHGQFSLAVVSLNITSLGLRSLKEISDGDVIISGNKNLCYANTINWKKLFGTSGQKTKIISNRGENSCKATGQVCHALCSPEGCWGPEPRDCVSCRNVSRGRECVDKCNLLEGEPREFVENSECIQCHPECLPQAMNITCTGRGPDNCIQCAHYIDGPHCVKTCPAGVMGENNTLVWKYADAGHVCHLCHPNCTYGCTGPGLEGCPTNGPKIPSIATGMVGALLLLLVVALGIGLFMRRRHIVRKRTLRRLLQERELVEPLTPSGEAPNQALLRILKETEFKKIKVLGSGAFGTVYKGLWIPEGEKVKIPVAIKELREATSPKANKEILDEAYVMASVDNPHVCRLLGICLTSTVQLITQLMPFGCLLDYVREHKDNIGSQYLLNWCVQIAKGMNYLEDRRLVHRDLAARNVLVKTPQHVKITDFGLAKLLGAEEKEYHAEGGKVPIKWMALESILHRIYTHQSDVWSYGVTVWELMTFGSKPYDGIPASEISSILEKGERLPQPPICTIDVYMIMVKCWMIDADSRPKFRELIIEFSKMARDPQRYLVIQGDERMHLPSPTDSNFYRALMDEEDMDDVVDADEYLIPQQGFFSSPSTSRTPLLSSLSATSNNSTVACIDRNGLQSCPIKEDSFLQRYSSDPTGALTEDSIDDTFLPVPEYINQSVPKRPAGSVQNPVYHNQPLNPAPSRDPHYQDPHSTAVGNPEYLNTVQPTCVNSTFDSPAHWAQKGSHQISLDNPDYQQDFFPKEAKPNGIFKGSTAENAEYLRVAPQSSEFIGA", "assay": "Inhibition of recombinant human EGFR at 1 uM"}}, "note": "The source made the active and inactive calls. The calls are words filed in the database; no cut-off is given here."}
{"smiles": "COc1cc(C(C)O/C(=N\\OC[C@H](O)CO)c2ccc(F)c(F)c2Nc2ccc(I)cc2F)c([N+](=O)[O-])cc1OC", "note": "(some centres not stated)", "values": [{"measurement": "inhibition at 10 µM", "setting": "[1]", "value": 92.4, "unit": "%"}, {"measurement": "inhibition", "setting": "[2]", "value": "inactive"}, {"measurement": "inhibition", "setting": "[3]", "value": "inactive"}, {"measurement": "GI50", "setting": "[4]", "value": 2.95, "unit": "nM"}, {"measurement": "inhibition", "setting": "[5]", "value": "inactive"}, {"measurement": "remaining at 1 h", "setting": "[6]", "value": 13.6, "unit": "%"}, {"measurement": "GI50", "setting": "[7]", "value": 2.13, "unit": "nM"}, {"measurement": "fold change (FC)", "setting": "[8]", "value": "> 5085"}, {"measurement": "inhibition at 10 µM", "setting": "[9]", "value": 21.5, "unit": "%"}, {"measurement": "remaining at 1 h", "setting": "[10]", "value": 84.5, "unit": "%"}, {"measurement": "GI50", "setting": "[11]", "value": "> 10000", "unit": "nM"}, {"measurement": "inhibition", "setting": "[12]", "value": "Active"}, {"measurement": "GI50", "setting": "[13]", "value": 6.29, "unit": "nM"}, {"measurement": "half-life", "setting": "[14]", "value": "> 289", "unit": "min"}, {"measurement": "half-life", "setting": "[15]", "value": 24.2, "unit": "min"}, {"measurement": "GI50 at 72 h", "setting": "[16]", "value": "> 10000", "unit": "nM"}, {"measurement": "inhibition at 10 µM", "setting": "[17]", "value": 44.6, "unit": "%"}, {"measurement": "inhibition at 10 µM", "setting": "[18]", "value": 63.3, "unit": "%"}, {"measurement": "Drug metabolism", "setting": "[19]", "value": "Metabolite_Detected"}, {"measurement": "GI50", "setting": "[20]", "value": 60, "unit": "nM"}, {"measurement": "GI50", "setting": "[21]", "value": 12700, "unit": "nM"}, {"measurement": "inhibition", "setting": "[22]", "value": "inactive"}, {"measurement": "inhibition", "setting": "[23]", "value": "inactive"}, {"measurement": "CLint scaled", "setting": "[24]", "value": 51.4, "unit": "mL/min/kg"}, {"measurement": "inhibition", "setting": "[25]", "value": "inactive"}, {"measurement": "inhibition", "setting": "[26]", "value": "Active"}, {"measurement": "inhibition", "setting": "[27]", "value": "inactive"}, {"measurement": "inhibition", "setting": "[28]", "value": "inactive"}, {"measurement": "Activity", "setting": "[29]", "value": "Dose-Dependent Effect"}, {"measurement": "inhibition at 10 µM", "setting": "[30]", "value": 0, "unit": "%"}, {"measurement": "half-life", "setting": "[31]", "value": 1.41, "unit": "min"}, {"measurement": "inhibition", "setting": "[32]", "value": "inactive"}]}
